For assay [1], the target named is T1, human sweet receptor hT1R2/hT1R3 (Homo sapiens, UniProt Q7RTX0+Q8TE23).
T1 construct: host or cells: human embryonic kidney cells (earlier application U.S. Ser. No. 10/770,127)
T1 sequence (Q8TE23 20-839): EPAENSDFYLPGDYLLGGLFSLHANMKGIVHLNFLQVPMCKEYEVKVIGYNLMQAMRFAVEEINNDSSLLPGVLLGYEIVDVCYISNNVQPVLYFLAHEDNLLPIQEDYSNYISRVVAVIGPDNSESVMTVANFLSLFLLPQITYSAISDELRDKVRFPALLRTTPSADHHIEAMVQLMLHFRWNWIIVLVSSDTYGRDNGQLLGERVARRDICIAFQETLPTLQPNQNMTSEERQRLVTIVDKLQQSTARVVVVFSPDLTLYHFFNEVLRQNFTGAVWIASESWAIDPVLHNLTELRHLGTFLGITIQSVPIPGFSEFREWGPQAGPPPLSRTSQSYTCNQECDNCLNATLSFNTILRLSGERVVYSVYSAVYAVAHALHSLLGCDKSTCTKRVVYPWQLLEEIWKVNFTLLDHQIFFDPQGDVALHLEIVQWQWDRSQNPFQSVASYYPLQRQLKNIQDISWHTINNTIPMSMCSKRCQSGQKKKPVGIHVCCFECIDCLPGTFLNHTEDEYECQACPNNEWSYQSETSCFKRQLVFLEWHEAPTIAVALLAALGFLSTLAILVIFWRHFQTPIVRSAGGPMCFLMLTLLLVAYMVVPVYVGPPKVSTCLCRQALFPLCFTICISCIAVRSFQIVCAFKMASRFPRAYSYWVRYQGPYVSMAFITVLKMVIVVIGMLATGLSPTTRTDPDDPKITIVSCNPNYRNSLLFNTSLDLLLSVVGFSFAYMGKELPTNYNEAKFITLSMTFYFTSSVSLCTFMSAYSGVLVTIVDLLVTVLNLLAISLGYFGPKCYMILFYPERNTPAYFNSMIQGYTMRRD
T1 sequence (Q7RTX0 21-852): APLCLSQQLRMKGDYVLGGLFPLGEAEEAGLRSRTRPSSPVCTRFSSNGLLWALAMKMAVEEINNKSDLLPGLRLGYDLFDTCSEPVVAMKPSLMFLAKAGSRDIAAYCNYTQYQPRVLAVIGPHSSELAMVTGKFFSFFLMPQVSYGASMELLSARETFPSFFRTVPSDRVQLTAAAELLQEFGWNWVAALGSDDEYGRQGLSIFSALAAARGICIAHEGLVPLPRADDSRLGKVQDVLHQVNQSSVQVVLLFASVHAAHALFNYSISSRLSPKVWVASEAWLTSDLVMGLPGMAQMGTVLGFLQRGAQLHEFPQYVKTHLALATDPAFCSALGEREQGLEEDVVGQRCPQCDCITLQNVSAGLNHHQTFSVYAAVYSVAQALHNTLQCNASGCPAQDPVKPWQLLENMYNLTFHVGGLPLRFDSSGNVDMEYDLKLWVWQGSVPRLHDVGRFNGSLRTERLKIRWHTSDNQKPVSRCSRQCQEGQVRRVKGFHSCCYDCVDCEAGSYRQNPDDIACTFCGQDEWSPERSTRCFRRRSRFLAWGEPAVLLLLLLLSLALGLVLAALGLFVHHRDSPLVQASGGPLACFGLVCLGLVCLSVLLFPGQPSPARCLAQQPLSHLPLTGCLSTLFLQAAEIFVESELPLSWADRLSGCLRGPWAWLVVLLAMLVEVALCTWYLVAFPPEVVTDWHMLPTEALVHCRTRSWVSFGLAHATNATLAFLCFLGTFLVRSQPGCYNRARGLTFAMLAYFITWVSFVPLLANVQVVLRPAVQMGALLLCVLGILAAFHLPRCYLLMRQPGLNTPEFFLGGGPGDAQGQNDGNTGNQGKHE
Description: Isoproterenol-induced calcium influx in HEK-293-oCNGC cells expressing hT1R2/hT1R3. The note with it: PTX 100 ng/ml for 4 hours; 200 nM isoproterenol; 5 mM Aspartame, 2 mM Cyclamate, 4 mM Saccharin, 0.1 mM Neotame; FIG. 15. It is filed as cell-based. The protocol: FIG. 13 contains the result of an experiment showing that increasing concentrations of sweeteners inhibit the isoproterenol-induced-calcium influx in HEK 293-oCNGC cells expressing the human sweet receptor hT1R2/hT1R3. Delta F/F values were normalized to the fluorescence obtained after stimulation with 200 nM isoproterenol. Each value corresponds to the mean ± SD of a triplicate determination.
Cells were left untreated (control) or treated with PTX for 4 hours at 100 ng/ml prior to the experiment. Cells were then stimulated with 200 nM isoproterenol in the presence or absence of the indicated sweeteners (5 mM Aspartame, 2 mM Cyclamate, 4 mM Saccharin and 0.1 mM Neotame).
(§1) Modulation of oCNG activity by taste receptors is measured in a cell-based assay that detects changes in intracellular calcium (as described in earlier examples). In brief, human embryonic kidney cells stably expressing the OCNC1 and are β1b subunits of oCNGC are transiently or stably transfected with T1R or T2R receptor plasmids. Transfected cells are seeded into 384-well culture plates, and functional expression is allowed to proceed for about 24 to 48 hours. The cells are then incubated with a calcium specific fluorescent dye (Fluo-4 or Fura-2, available from Molecular Probes) that provides for fast, simple and reliable fluorimetric detection of changes in calcium concentration within the cell.
An experiment was conducted to assess the effect of various sweeteners (known to activate the human T1R2/T1R3 sweet receptor) on isoproterenol-induced calcium influx in HEK-293—oCNGC cells that express the human T1R2/T1R3 sweet receptor. As shown by the results in FIG. 13, increasing concentrations of sweetener inhibits isoproterenol-induced calcium influx in these cells. (In the figure, Delta F/F values were normalized to the fluorescence obtained after stimulation with 200 nM isoproterenol and each value corresponds to the means ± SD of a triplicate determination). […]

Assay [2] addresses T2, human T1R2/T1R3 sweet taste GPCR (Homo sapiens, UniProt Q7RTX0+Q8TE23).
T2 construct: expressed in transfected cells; host or cells: CNG136, derived from HEK293
T2 sequence (Q8TE23 20-839): T1 sequence (Q8TE23 20-839)
T2 sequence (Q7RTX0 21-852): T1 sequence (Q7RTX0 21-852)
The assay can be described thus: CNG136 cell line (HEK293-derived, co-expressing human CNG channel and human T1R2/T1R3), FLIPR384 response. Conditions: 5 mM Aspartame (saturating concentration, the normalization reference); average of 2. It is filed as cell-based. The protocol:
(§2) Methods: […] This cell line was derived from HEK293 cells. CNG136 was tested with several sweet receptor agonists and modulators including, Compound 6542888, Compound 3069733, and Aspartame. Response to 10 uM of 6542888 and 3069733 and 5 mM Aspartame was measured using a FLIPR384 instrument (Molecular Devices) and is reported in Table I below. Data were normalized to the maximum activity obtained with a saturating concentration of Aspartame (5 mM). Compounds were also tested on control (“Parental CNG”) cells lacking the human sweet GPCR.

In assay [3] the test system is Parental CNG cells lacking the human sweet GPCR. Description: Control Parental CNG cells lacking the human sweet GPCR, FLIPR384 response. It counts as cell-based. The note with it: 5 mM Aspartame, average of 2. The protocol: as §2
Assay [4] deals with untransfected HEK 293-oCNGC cells. Description: Isoproterenol-induced calcium influx in untransfected HEK 293-oCNGC cells. It counts as cell-based, human. Conditions: cells not expressing hT1R2/hT1R3; increasing concentrations; 200 nM isoproterenol; FIG. 14. As for the experimental part: Delta F/F valves were normalized to the fluorescence obtained after stimulation with 200 nM isoproterenol. Each value corresponds to the mean ± SD of a triplicate determination.
as §1
An experiment was conducted to confirm that the effects of the sweeteners on calcium influx requires the expression of the sweet receptor.
In FIG. 14, it is shown that increasing concentrations of the tested sweeteners had no inhibitory effect on isoproterenol-induced calcium influx in untransfected HEK 293—oCNGC cells. Again, Delta F/F values were normalized to the fluorescence obtained after stimulation with 200 nM isoproternol and each value component to the mean ± SD of a triplicate determination).

For assay [5], the target named is T3, mouse olfactory receptor, mOREG (Mus musculus, UniProt Q920P2).
T3 construct: expressed in transfected cells; host or cells: HEK-293, co-transfected with OCNC1[C458W/E581M], OCNC2 and β1b
T3 sequence (Q920P2 1-313): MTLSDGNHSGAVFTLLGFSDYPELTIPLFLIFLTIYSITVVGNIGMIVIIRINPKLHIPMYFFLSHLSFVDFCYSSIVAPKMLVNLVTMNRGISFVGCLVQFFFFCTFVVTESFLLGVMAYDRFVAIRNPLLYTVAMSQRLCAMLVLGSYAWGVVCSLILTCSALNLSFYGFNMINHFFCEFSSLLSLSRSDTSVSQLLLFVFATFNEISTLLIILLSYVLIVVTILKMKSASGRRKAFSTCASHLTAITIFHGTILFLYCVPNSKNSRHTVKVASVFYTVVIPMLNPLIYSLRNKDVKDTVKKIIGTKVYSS
Description: Calcium dye fluorescence microscopy, HEK-293 cells transfected with mOREG and human olfactory CNG channel subunits. It is filed as cell-based. Conditions: CNG channel dependent and mOREG dependent, FIG. 9. The protocol:
HEK-293 cells were transfected with OCNC1[C458W/E581FM], OCNC2, and β1band a mouse olfactory receptor, mOREG, that is activated by eugenol (Kajiya et al., 2001). Transfected cells were seeded onto multi-well plates. After 48 hours, cells were loaded with a calcium dye for one hour, then washed, and their response to eugenol stimulation was monitored by fluorescence microscopy.

Another assay concerns HEK-293-oCNGC cells. Description: Calcium influx in HEK-293-oCNGC cells on isoproterenol addition. It is filed as cell-based, human. The note with it: increasing concentrations; FIG. 12. As for the experimental part: FIG. 12 contains the results of an experiment showing that increasing concentrations of isoproterenol induce calcium influx in HEK 293-oCNGC cells. Delta F/F corresponds to the maximum fluorescence value obtained after stimulation minus the minimum fluorescence measured before stimulation and normalized to the minimum fluorescence measure before stimulation.
as §1
This accumulation of CAMP induces oCNGC activation, which in turn causes extracellular calcium to flow inside the cells, resulting in a net increase of intracellular calcium concentration and a parallel increase of the fluorescence signal in the cells (FIG. 12).

Assay [6] concerns activity-enhanced human olfactory CNG channel. The assay can be described thus: FLIPR calcium assay, HEK-293 cells stably expressing the activity-enhanced human olfactory CNG channel. It counts as cell-based. Conditions: calcium dye; versus parent cells and wild type CNG subunits; FIG. 11. As for the experimental part: The HEK-293 cells that stably express the activity-enhanced human olfactory CNG channel were seeded into FLIPR imaging plates 24 hours prior to the experiment, on plates pre-coated with matrigel. The cells were loaded with a fluorescent calcium dye for one hour, washed and transferred to a FL]PR automated fluorometric plate reader with on-board fluidics. […] Therefore, the cell-based assay is amenable to high throughput applications, especially with respect to low affinity modulators.

Assay [7] deals with human olfactory CNG channel. Description: FLIPR calcium assay, HEK-293 cells stably expressing the human olfactory CNG channel. Conditions: calcium dye; versus parent cells; FIG. 11. It is filed as cell-based. The protocol: The HEK-293 cells that stably express the human olfactory CNG channel were seeded into FLIPR imaging plates 24 hours prior to the experiment, on plates pre-coated with matrigel. The cells were loaded with a fluorescent calcium dye for one hour, washed and transferred to a FLIPR automated fluorometric plate reader with on-board fluidics. […] Therefore, the cell-based assay is amenable to high throughput applications.

Peptide text beside a SMILES is read from it.

As to `COC(=O)[C@H](Cc1ccccc1)NC(=O)[C@@H](N)CC(=O)O` [Aspartame] (H-Asp-Phe-OMe), in assay [1], the “inhibition of isoproterenol-induced calcium influx after PTx pretreatment” value was “prevented the inhibition”. In assay [2], the “% Max Activity CNG136” value was found to be 100%. Besides, in assay [3], the “% Activity CNG (Parental Cells)” value is 0%. The “effect on isoproterenol-induced calcium influx” value in assay [4] is listed as “unaffected”.
As to `C=CCc1ccc(O)c(OC)c1` [Eugenol, eugenol], the fluorescence response entry in assay [5] was “elicited fluorescence increases”.
For the compound `CC(C)NCC(O)c1ccc(O)c(O)c1` (centres unmarked) [isoproterenol], in the assay with HEK-293-oCNGC cells, the calcium influx entry is “in a dose-dependent manner”. For the same compound, the fluorescence response result in assay [6] was “fluorescence similar to that observed with wild type CNG subunits”; in assay [7] it was “increased fluorescence”.
